Measured values: the METLIN SMRT retention time set (Domingo-Almenara et al. 2019)

Test: gradient 5% acetonitrile 3 min, to 50% in 2 min, to 85% in 15 min, held 3 min, 100 µL/min
Settings: column: Zorbax Extend-C18 2.1 x 50 mm; eluents: water / acetonitrile, 0.1% formic acid
In short: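 The system's dead and dwell volumes were 40 μL and 900 μL, with a Zorbax Extend-C18 column (2.1 × 50 mm, 1.8 μm) run at 100 μL/min in water and acetonitrile containing 0.1% formic acid each. Pure standards were analyzed in mixtures of ~100 molecules by HPLC–quadrupole time-of-flight mass spectrometry in positive and negative ionization mode. Retention time was assigned from computationally picked, manually inspected adduct peaks.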

Cc1ccc(/C=C/c2nc(-c3ccc4c(c3)oc(=O)n4C(C)C)no2)o1
RP-LC retention time: 659 s

CCCn1ccc2sc(C)c(C(=O)NCc3cc(C)ccc3C)c2c1=O
RP-LC retention time: 1020 s

CN(c1ccccc1)S(=O)(=O)c1ccc(C(=O)Nc2nccs2)cc1
RP-LC retention time: 807 s

COc1cc(OC)c(NC(=O)N2c3ccccc3CC2c2nc(C3CC3)no2)cc1Cl (stereo not drawn)
RP-LC retention time: 1120 s

CCNc1cc(C)nc(N2CCN(C(=O)C(C)(C)C)CC2)n1
RP-LC retention time: 632 s

COc1ccc(-n2nc3c(N4CCCC(C(=O)NCc5cccs5)C4)nnc(C)c3c2C)cc1 (stereo not drawn)
RP-LC retention time: 724 s

O=C(NCc1cccc(Br)c1)C1CCCN(c2nccnc2Oc2ccccc2)C1 (stereo not drawn)
RP-LC retention time: 1050 s

Cc1cc(C(=O)Nc2ccc(-c3ccn[nH]3)cc2)c(C)o1
RP-LC retention time: 716 s

COCC(=O)Nc1ccc(N2CCN(C3CCCCC3)CC2)cc1C(=O)O
RP-LC retention time: 603 s

CN(CC1CCOC1)C(=O)c1ccc(F)cc1F (stereo not drawn)
RP-LC retention time: 683 s

CCC(=O)Nc1nc(-c2ccc(C(C)C)cc2)cs1
RP-LC retention time: 1000 s

Cc1ccc(C(=O)Nc2ccc(OCc3nnc(-c4ccccc4)o3)cc2)s1
RP-LC retention time: 988 s

CCS(=O)(=O)NCC1CCN(C(=O)COc2ccccc2)CC1
RP-LC retention time: 659 s

Cc1cc(C)cc(NC(=O)C2CCCN2S(=O)(=O)c2cc3c(cc2C)NC(=O)C(C)O3)c1 (stereo not drawn)
RP-LC retention time: 852 s

CCC(C)Sc1nnc(-c2cn(C)nc2OC)n1CCOC (stereo not drawn)
RP-LC retention time: 634 s

CCOC(=O)Cn1nc2ccc(S(=O)(=O)N3CCSCC3)cn2c1=O
RP-LC retention time: 765 s

O=C(NCCCN1CCOCC1)c1ccc2c(c1)N(C(=O)c1ccc(F)cc1)CC2
RP-LC retention time: 615 s

CCc1nc2cc(N3CCC(C(=O)NCc4ccc(F)cc4)CC3)cnc2nc1CC
RP-LC retention time: 851 s

CCCN(CCC)Cc1ccc(CNC(=O)C2CCCN(c3nnc(N4CCCC4=O)s3)C2)o1 (stereo not drawn)
RP-LC retention time: 614 s

CCc1ccc(N2CC(c3noc(-c4ccc(OC)cc4)n3)CC2=O)cc1 (stereo not drawn)
RP-LC retention time: 1080 s

COc1ccc(CC(=O)Nc2ccc3c(c2)Sc2ncccc2C(=O)N3C(C)C)cc1
RP-LC retention time: 844 s

CCCNC(=O)C1CCN(c2nc3ccsc3c(=O)n2Cc2ccc(F)cc2)CC1
RP-LC retention time: 807 s

CCOC(=O)c1ccccc1NC(=O)N(CC)Cc1cc(=O)[nH]c2ccccc12
RP-LC retention time: 907 s

Cc1nccn1CCC(C(N)=O)(c1ccccc1)c1ccccc1
RP-LC retention time: 688 s

O=C(Nc1ccccc1Br)N1CCc2nc(-c3ccccc3)ncc2C1
RP-LC retention time: 964 s

CCN1C(=O)c2cccnc2Sc2cc(CNC(=O)c3ccn(CC)n3)ccc21
RP-LC retention time: 697 s

CS(=O)(=O)N(Cc1cccnc1)C1CN(C(=O)Nc2ccc3c(c2)OCCO3)C1
RP-LC retention time: 551 s

FC(F)(F)c1cccc(CN2CCCN(c3ncccc3-c3nc(C4CC4)no3)CC2)c1
RP-LC retention time: 765 s

Cc1ccc(-c2nnc(-c3nc(NCc4cccnc4)c4ccccc4n3)o2)cc1
RP-LC retention time: 676 s

Nc1nc(NCc2ccccc2Cl)ncc1[N+](=O)[O-]
RP-LC retention time: 778 s

COc1cc(C(=O)NCC(c2ccc3c(c2)OCO3)N2CCOCC2)cc(OC)c1OC (stereo not drawn)
RP-LC retention time: 617 s

CCS(=O)(=O)N1CCC(Cc2nncn2Cc2ccccc2)C1 (stereo not drawn)
RP-LC retention time: 643 s

COc1ccc(-c2noc(Cn3nc(-c4ccc(C)cc4)ccc3=O)n2)cc1OC
RP-LC retention time: 962 s

CC(C)NC(=O)CN1CCN(c2cc(C(=O)O)c3cc(NC(=O)c4ccc(F)cc4)ccc3n2)CC1
RP-LC retention time: 603 s

COc1ccc(Cl)cc1NC(=O)C1CCN(S(=O)(=O)c2cc(-c3noc(C)n3)cs2)CC1
RP-LC retention time: 1050 s

CCOc1ccccc1NC(=O)c1sc(N2CCCC2=O)nc1CC
RP-LC retention time: 1020 s

CCC1(C(=O)NCCCN2CCc3ccccc3C2)CCCCC(=O)N1 (stereo not drawn)
RP-LC retention time: 582 s

CCN1CCN(CCNC(=O)C2CCN(Cc3cn(C)c4ccc(Cl)cc34)CC2)CC1
RP-LC retention time: 561 s

O=C1NC2(CCN(C(=O)c3ccccc3F)CC2)Nc2c(Cl)cccc21
RP-LC retention time: 742 s

CC(C)NC(=O)Nc1cc2c(cc1N1CCOCC1)n(C)c(=O)n2C
RP-LC retention time: 634 s

CC(NC(=O)CCC(=O)N1CCc2c(c(C(=O)N3CCOCC3)nn2C)C1)c1ccccc1 (stereo not drawn)
RP-LC retention time: 632 s

N#Cc1c(N)sc2c1CCC(c1ccccc1)C2 (stereo not drawn)
RP-LC retention time: 955 s

CCOC(=O)c1sc(NC(=O)c2ccc([N+](=O)[O-])cc2)nc1-c1ccccc1
RP-LC retention time: 1140 s

CCn1cc(C(=O)Nc2ccc(C)c(F)c2)c(S(=O)(=O)N2CCSCC2)n1
RP-LC retention time: 901 s

COC(=O)c1ccc(C(=O)OC)c(NS(=O)(=O)CCOc2ccccc2)c1
RP-LC retention time: 968 s

CC1CCN(S(=O)(=O)c2ccc(-c3nnc(C(=O)NCCCOC(C)C)o3)cc2)CC1
RP-LC retention time: 1030 s

COc1ccccc1C(=O)Nc1cccn2nc(C3CCC3)nc12
RP-LC retention time: 1140 s

COc1ccc(-c2cn3cccnc3n2)cc1NC(=O)c1ccc(OC)c(OC)c1
RP-LC retention time: 641 s

Cc1ccc(S(=O)(=O)N2CCc3nc(-c4ccc(F)cc4)ncc3C2)c(C)c1
RP-LC retention time: 1220 s

COc1ccc(-c2ncc3c(=O)n(Cc4ccc(Br)cc4F)c(=O)n(C)c3n2)cc1
RP-LC retention time: 1290 s

O=C(NCC1CCCO1)c1cn(-c2cc(-c3nc(C4CC4)no3)ccn2)cn1 (stereo not drawn)
RP-LC retention time: 762 s

COc1ccc(Cn2ccc3ccc(C(=O)NO)cc32)cc1
RP-LC retention time: 782 s

Cc1ccc(CNC(=O)CN2C(=O)CCCc3cc(S(=O)(=O)N4CCCCC4)ccc32)cc1
RP-LC retention time: 891 s

O=c1c2ccccc2n(Cc2nc(-c3ccc(F)cc3)no2)c(=O)n1Cc1ccco1
RP-LC retention time: 1050 s

COc1ccc(OC)c(CNC(=O)C2CCN(Cc3cn(C)c4ccc(OC)cc34)CC2)c1
RP-LC retention time: 682 s

CCN(C(=O)Cn1c(N2CCCCC2)nc(C)cc1=O)c1ccccc1
RP-LC retention time: 661 s

O=C(C1=NN(Cc2ccccc2)c2ccccc2S1(=O)=O)N1CCCC1
RP-LC retention time: 784 s

CCOc1ccc(C2C(C(=O)O)c3ccccc3C(=O)N2CCN2CCOCC2)cc1 (stereo not drawn)
RP-LC retention time: 649 s

Cc1ccc(-c2noc(CCN3CCN(C(C)C)CC3)n2)cc1
RP-LC retention time: 640 s

CN1CCC(OC2CCN(C(=O)c3ccc(Br)cc3)CC2)CC1
RP-LC retention time: 615 s

CCCN(C)c1nccnc1OC1CCN(C(=O)C2CCCCC2)C1 (stereo not drawn)
RP-LC retention time: 938 s

Cc1nn(C)c(C)c1C(=O)N1CC(n2cc(COc3ccc(F)cc3)nn2)C1
RP-LC retention time: 712 s

O=S(=O)(Cc1nc(-c2ccc(Br)cc2)no1)c1ccccc1
RP-LC retention time: 1040 s

Cc1ccc(N(C)C(=O)CN(C)S(=O)(=O)c2ccc3c(c2)CCCC(=O)N3)cc1
RP-LC retention time: 725 s

COc1ccc(CNC(=O)C2=C3CCCN3c3ccccc3S2(=O)=O)cc1
RP-LC retention time: 795 s

O=C(NCC1CCN(C2CCCC2)CC1)C(=O)Nc1ccc(OC(F)(F)F)cc1
RP-LC retention time: 611 s

O=c1n(Cc2cccc(F)c2)nc2ccc(S(=O)(=O)N3CCCCC3)cn12
RP-LC retention time: 952 s

c1csc(CN2CCC(c3nc(-c4cnccn4)n[nH]3)CC2)c1
RP-LC retention time: 555 s

CCOC(=O)N1CCC(NC(=O)C2CCCN(Cc3nc(-c4cccnc4)no3)C2)CC1 (stereo not drawn)
RP-LC retention time: 559 s

CCCn1cc(C(=O)NCC(C)C)c2nn(-c3ccccc3)c(=O)c-2c1
RP-LC retention time: 878 s

O=Cc1cn(Cc2ccc(Cl)cc2)c2ccccc12
RP-LC retention time: 968 s

Cc1nc(-c2ccc(-c3noc(CNC(=O)c4ccccc4)n3)cc2)cs1
RP-LC retention time: 902 s

Cc1csc(-c2cc(S(=O)(=O)N3c4ccccc4CC3C)c(C)s2)n1 (stereo not drawn)
RP-LC retention time: 1220 s

CC1=C(c2ccc(C(C)C)cc2)S(=O)(=O)N=C1N1CCC(C(=O)NCc2ccco2)CC1
RP-LC retention time: 939 s

Cc1ccc(S(=O)(=O)Nc2nc3ccccc3nc2Nc2ccc3nsnc3c2)cc1
RP-LC retention time: 1220 s

COc1ccc(OC)c(NC(=O)C2CCN(c3cc(N4CCCCC4)ncn3)CC2)c1
RP-LC retention time: 709 s

O=C(NCc1ccc(C(F)(F)F)cc1)C1CCCN(c2nccnc2Sc2ccccc2)C1 (stereo not drawn)
RP-LC retention time: 1140 s

CCn1ccc2ccn(CC(=O)NCc3ccc4c(c3)OCO4)c(=O)c21
RP-LC retention time: 726 s

Cc1ccc(CN2CCN(CC(=O)Nc3ccc(Cl)cc3)C(=O)C2=O)cc1
RP-LC retention time: 836 s

CCOc1ccc(-c2cn3ccn(-c4ccc(OC)cc4)c(=O)c3n2)cc1
RP-LC retention time: 830 s

Cc1ccc(C(=O)Nc2nc(-c3ccc4c(c3)NC(=O)CO4)c(C)s2)cc1
RP-LC retention time: 931 s

CC(=O)OCCN1c2ccccc2Sc2cnccc21
RP-LC retention time: 663 s

COc1ccc(N2CCN(C(=O)C3CC(=O)N(c4n[nH]c5cccc(F)c45)C3)CC2)cc1 (stereo not drawn)
RP-LC retention time: 662 s

Cc1ccn2cc(C(=O)NCc3ccc(F)cc3F)nc2c1
RP-LC retention time: 655 s

CC(C)c1ccc(N2C(=O)C3N=NN(Cc4nc(-c5cccc(C(F)(F)F)c5)no4)C3C2=O)cc1 (stereo not drawn)
RP-LC retention time: 1260 s

O=c1c2cc3c(cc2nc(SCc2nc(-c4cccc(F)c4)no2)n1Cc1ccncc1)OCO3
RP-LC retention time: 795 s

Cc1nc(-c2csc(S(=O)(=O)N3CCCC(C(=O)Nc4ccc(F)cc4Cl)C3)c2)no1 (stereo not drawn)
RP-LC retention time: 1010 s

O=C(Cc1ccc(F)cc1)NC(c1ccccc1)c1nnc(N2CCOCC2)o1 (stereo not drawn)
RP-LC retention time: 743 s
